Experimental data from patent US11014934B2, “Antiseptic drug” (AO “TATKHIMFARMPREPARATY”, priority 2017, dated 2021).
Converted amounts (≈) assume the structure as drawn.

Assays:
Stylonychia mytilus = assay: Antiprotozoal activity by death of protozoa; type: cell-based; conditions: death of protozoa
Description: Evaluation of the antiprotozoal activity of compound I was determined by the viability of the protozoa genus of hypotrichs Stylonychia mytilus in a nutrient medium in the presence of the studied substances. A mother liquor of compound I (10 mg/ml) was prepared in a mixture of DMSO and 96% ethanol (1:1). A 1% aqueous solution of DMSO and ethyl alcohol served as a negative control, and miramistin, benzalkonium chloride, and chlorhexidine were used as reference preparations. Then, from the mother liquors by repeated dilutions with water, working solutions were prepared corresponding to doses of 5; 10; 20; 25; 50; 75; 100 and 150 μg/ml. 10 μl of culture medium with protozoa and 10 μl of a solution of the test substance were applied to a chamber slide. The experiment was done in five replicates.
Slides were examined under a light microscope, antiprotozoal activity of substances (MIC and IC50) were determined by the death of protozoa. The Hill regression model with 5 parameters was used for the analysis.

E. coli CDC F-50 = assay: Antiseptic activity on rat skin; type: in vivo; conditions: E. coli CDC F-50 on rat skin; antiseptic concentration 0.2%; exposure time 5 min; n = 6
Description: The study of the antiseptic activity of compound I in rats […] was carried out in accordance with [R 4.2.2643-10 Metody laboratornykh issledovaniy i ispytaniy mediko-profilakticheskikh dezinfektsionnykh sredstv dlya otsenki ikh effektivnosti i bezopasnosti: Rukovodstvo.—M: Federal'nyy tsentr gigiyeny i epidemiologii Rospotrebnadzora, 2010.—S. 615. R 4.2.2643-10 Laboratory methods for the study and testing of medical prophylactic disinfectants to assess their effectiveness and safety: Guide.—M.:: Federal Center for Hygiene and Epidemiology of Rospotrebnadzor, 2010.—P. 615]. Experiments were carried out on male Wistar rats with a body weight of 180-250 g.
A culture of E. coli CDC F-50, grown on dense nutrient medium for (18-20) hours, was washed with sterile isotonic chloride solution, centrifuged at 5000 rpm for 5 minutes, the supernatant was drained and cells were resuspended with sterile isotonic sodium chloride solution.
The bacterial suspension of microorganisms was brought to a turbidity of […] according to McFarland, which corresponds to a concentration of 1.5×10^7 cells/ml.
Animals were formed in 5 groups of 6 animals each. All manipulations with animals were performed under isoflurane anesthesia (4%—induction of anesthesia (2 min, 1 l/min), 2%—basis narcosis). A portion of 5×5 cm was shaved with a hair clipper on the dorsal part of the body of the animal.
A 0.25 ml microbial suspension containing 1×10^7 CFU of E. coli CDC F-50 was applied to the shaved portion of the rat back with a dispenser and distributed with a sterile disposable spatula over the entire square area. It was left for 2-3 minutes until dry.
Then, a gauze cloth (5×5 cm) was applied to the skin of rats for 5 minutes. In the experimental group, the tissue was pre-wetted with 1 ml of 0.2% solution of compound I, and in the positive control groups, the tissue was dipped in 1 ml of 0.2% miramistin, benzalkonium chloride and chlorhexidine. In the negative control group, the cloth was immersed in 1 ml of sterile saline. […]
After the time required for the cultivation of microorganisms of this species, the results were counted according to the number of colonies grown on the Petri dish. […] After counting the number of colonies grown on Petri dishes, the density of contamination per 1 cm^2 of the surface and the percentage of disinfection were calculated, taking the number of colonies removed from control surfaces and not exposed to antiseptics action as 100%. The percentage of growth inhibition of E. coli CDC F-50 was calculated by the formula: […]

Question: Which results are given for `[H]/N=C(\N/C(=N/[H])NCCCCCCNC(=N)NC(=N)Nc1ccc(Cl)cc1)Nc1ccc(Cl)cc1` [Chlorhexidine]?
Answer: IC50 (Stylonychia mytilus; Hill regression, read-out: IC50 (95% confidence interval)): 42 µg/mL (≈ 83.1 µM); MIC (Stylonychia mytilus; read-out: MIC): 20 µg/mL (≈ 39.6 µM); Growth inhibition rate (M ± SD) (E. coli CDC F-50): 95.7 ± 3.4%
